Data as given in patent US9815839B2, “N-(1-(substituted-phenyl)ethyl)-9H-purin-6-amines as PI3K inhibitors” (Incyte Corporation, priority 2010, dated 2017).
Structures can show the parent of a compound that is named as a salt.

What was measured:
PI3Kδ (p110δ/p85α) = biological target: T1, PI3Kδ (p110δ/p85α) (Homo sapiens, UniProt O00329); test: PI3Kδ scintillation proximity assay; type: biochemical; details: 20 μM ATP, 4 nM PI3Kδ
T1 construct: purchased Millipore (Bedford, Mass.)
How it was run: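 Radiometric SPA: product captured on WGA beads after EDTA quench and counted, IC50 fitted against log inhibitor concentration. Reactions ran 210 min at room temperature with 4 nM PI3Kδ (p110δ/p85α), 20 μM each PIP2 and ATP plus 33P-ATP, pH 6.7 MOPS buffer, 0.5% DMSO final.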

[1] = system: Pfeiffer cell line (diffuse large B cell lymphoma); test: Pfeiffer cell proliferation assay; type: cell-based; details: Homo sapiens, Pfeiffer, Pfeiffer cells, 3-4 days plus 12 hours [3H]-thymidine incorporation
Description: Example C: Pfeiffer Cell Proliferation Assay
Pfeiffer cell line (diffuse large B cell lymphoma) was purchased from ATCC (Manassas, Va.) and maintained in the culture medium recommended (RPMI and 10% FBS). To measure the anti-proliferation activity of the compounds, the Pfeiffer cells were plated with the culture medium (2×10^3 cells/well/per 200 μl) into 96-well ultra-low binding plates (Corning, Corning, N.Y.), in the presence or absence of a concentration range of test compounds. After 3-4 days, [^3H]-thymidine (1 μCi/well) (PerkinElmer, Boston, Mass.) in PBS was then added to the cell culture for an additional 12 hours before the incorporated radioactivity was separated by filtration with water through GF/B filters (Packard Bioscience, Meridenj, Conn.) and measured by liquid scintillation counting with a TopCount (Packard Bioscience).

T1 sequence (O00329 whole entry, species assumed): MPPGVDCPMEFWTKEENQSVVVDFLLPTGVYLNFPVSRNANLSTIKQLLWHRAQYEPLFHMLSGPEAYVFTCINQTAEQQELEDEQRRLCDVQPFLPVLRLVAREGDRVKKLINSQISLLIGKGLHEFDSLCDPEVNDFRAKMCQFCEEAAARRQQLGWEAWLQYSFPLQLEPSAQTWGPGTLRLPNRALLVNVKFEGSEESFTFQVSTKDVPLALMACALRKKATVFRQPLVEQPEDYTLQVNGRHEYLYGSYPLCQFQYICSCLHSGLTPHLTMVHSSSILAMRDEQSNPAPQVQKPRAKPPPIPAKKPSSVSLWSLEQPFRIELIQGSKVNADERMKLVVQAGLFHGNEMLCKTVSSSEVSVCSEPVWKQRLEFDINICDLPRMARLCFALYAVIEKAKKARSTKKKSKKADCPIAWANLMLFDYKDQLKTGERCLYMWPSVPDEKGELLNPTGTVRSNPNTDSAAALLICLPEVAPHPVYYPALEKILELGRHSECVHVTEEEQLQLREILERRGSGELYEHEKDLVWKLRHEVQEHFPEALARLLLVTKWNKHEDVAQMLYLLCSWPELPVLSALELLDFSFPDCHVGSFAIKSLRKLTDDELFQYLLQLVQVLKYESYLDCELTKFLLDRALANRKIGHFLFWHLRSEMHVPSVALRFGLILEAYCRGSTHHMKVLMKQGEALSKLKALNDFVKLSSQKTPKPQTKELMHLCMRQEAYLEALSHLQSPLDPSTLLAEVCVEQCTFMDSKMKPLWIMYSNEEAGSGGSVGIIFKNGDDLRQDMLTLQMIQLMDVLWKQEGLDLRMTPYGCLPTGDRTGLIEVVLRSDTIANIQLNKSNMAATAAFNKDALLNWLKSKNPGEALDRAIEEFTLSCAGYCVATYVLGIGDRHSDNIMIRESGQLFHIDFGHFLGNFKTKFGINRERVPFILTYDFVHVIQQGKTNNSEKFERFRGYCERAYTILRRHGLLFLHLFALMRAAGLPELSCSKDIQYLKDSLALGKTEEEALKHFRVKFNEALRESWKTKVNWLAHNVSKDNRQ
T1 sequence (P27986 whole entry partner, species assumed): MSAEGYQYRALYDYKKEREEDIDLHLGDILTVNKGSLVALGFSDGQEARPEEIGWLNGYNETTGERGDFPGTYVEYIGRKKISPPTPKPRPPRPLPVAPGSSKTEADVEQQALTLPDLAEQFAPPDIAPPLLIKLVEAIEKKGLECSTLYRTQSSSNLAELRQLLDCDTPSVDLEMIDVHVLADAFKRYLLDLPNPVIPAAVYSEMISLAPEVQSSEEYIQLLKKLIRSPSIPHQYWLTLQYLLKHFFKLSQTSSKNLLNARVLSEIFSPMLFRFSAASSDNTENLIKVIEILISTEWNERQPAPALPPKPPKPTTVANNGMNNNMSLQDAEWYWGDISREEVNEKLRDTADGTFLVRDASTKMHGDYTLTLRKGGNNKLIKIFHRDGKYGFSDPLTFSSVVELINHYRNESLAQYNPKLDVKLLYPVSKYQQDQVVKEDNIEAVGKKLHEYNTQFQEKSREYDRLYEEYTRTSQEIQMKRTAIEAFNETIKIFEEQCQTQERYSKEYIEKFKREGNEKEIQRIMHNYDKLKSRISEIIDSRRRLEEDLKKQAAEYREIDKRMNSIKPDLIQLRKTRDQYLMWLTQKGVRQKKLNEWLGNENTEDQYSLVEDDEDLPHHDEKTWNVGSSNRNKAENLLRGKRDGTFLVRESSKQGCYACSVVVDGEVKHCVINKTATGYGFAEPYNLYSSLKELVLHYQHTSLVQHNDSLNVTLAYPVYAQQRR

Compound | IC50 (PI3Kδ (p110δ/p85α)) [nM] | IC50 [1] [nM]
Cc1c(Cl)cc(C(C)Nc2ncnc3[nH]cnc23)c(-c2cc(F)cc(F)c2)c1-c1cccnc1 (stereo not drawn) [Example 78, N-[1-(4-chloro-3′,5′-difluoro-5-methyl-6-pyridin-3-ylbiphenyl-2-yl)ethyl]-9H-purin-6-amine] | < 50 | < 100
Cc1c(Cl)cc(C(C)Nc2ncnc3[nH]cnc23)c(-c2cc(F)cc(F)c2)c1-c1ccc(C#N)cc1 (stereo not drawn) [Example 79, 5′-chloro-3″,5″-difluoro-6′-methyl-3′-[1-(9H-purin-6-ylamino)ethyl]-1,1′:2′,1″-terphenyl-4-carbonitrile] | 100 to 250 | 100 to 500
Cc1c(Cl)cc(C(C)Nc2ncnc3[nH]cnc23)c(-c2cc(F)cc(F)c2)c1-c1cc(F)nc(F)c1 (stereo not drawn) [Example 80, N-{1-[4-chloro-6-(2,6-difluoropyridin-4-yl)-3′,5′-difluoro-5-methylbiphenyl-2-yl]ethyl}-9H-purin-6-amine] | < 50 | < 100
Cc1c(Cl)cc(C(C)Nc2ncnc3[nH]cnc23)c(-c2cc(F)cc(F)c2)c1-c1cncnc1 (stereo not drawn) [Example 81, N-[1-(4-chloro-3′,5′-difluoro-5-methyl-6-pyrimidin-5-ylbiphenyl-2-yl)ethyl]-9H-purin-6-amine] | < 50 | < 100
COc1ncc(-c2c(C)c(Cl)cc(C(C)Nc3ncnc4[nH]cnc34)c2-c2cc(F)cc(F)c2)cn1 (stereo not drawn) [Example 82, N-{1-[4-chloro-3′,5′-difluoro-6-(2-methoxypyrimidin-5-yl)-5-methylbiphenyl-2-yl]ethyl}-9H-purin-6-amine] | < 50 | < 100
CC(=O)Nc1ccc(-c2c(C)c(Cl)cc(C(C)Nc3ncnc4[nH]cnc34)c2-c2cc(F)cc(F)c2)cc1 (stereo not drawn) [Example 83, N-{5′-chloro-3″,5″-difluoro-6′-methyl-3′-[1-(9H-purin-6-ylamino)ethyl]-1,1′:2′,1″-terphenyl-4-yl}acetamide] | < 50 | < 100
COc1c(C(C)Nc2ncnc3[nH]cnc23)cc(Cl)c(C)c1-c1ccnc(F)c1 (stereo not drawn) [Example 84, N-{1-[5-chloro-3-(2-fluoropyridin-4-yl)-2-methoxy-4-methylphenyl]ethyl}-9H-purin-6-amine] | < 50 | < 100
COc1c(C(C)Nc2ncnc3[nH]cnc23)cc(Cl)c(C)c1-c1cnc(F)c(C)c1 (stereo not drawn) [Example 87, N-{1-[5-chloro-3-(6-fluoro-5-methylpyridin-3-yl)-2-methoxy-4-methylphenyl]ethyl}-9H-purin-6-amine] | < 50 | < 100
COc1c(C(C)Nc2ncnc3[nH]cnc23)cc(Cl)c(C)c1-c1ccc(N2CCOCC2)cc1 (stereo not drawn) [Example 88, N-[1-(5-chloro-2-methoxy-6-methyl-4′-morpholin-4-ylbiphenyl-3-yl)ethyl]-9H-purin-6-amine] | < 50 | < 100
COc1c(C(C)Nc2ncnc3[nH]cnc23)cc(Cl)c(C)c1-c1ccc(F)c(Cl)c1 (stereo not drawn) [Example 89, N-[1-(3′,5-dichloro-4′-fluoro-2-methoxy-6-methylbiphenyl-3-yl)ethyl]-9H-purin-6-amine] | 50 to 100 | 500 to 1000
CCOc1cccc(-c2c(C)c(Cl)cc(C(C)Nc3ncnc4[nH]cnc34)c2OC)c1 (stereo not drawn) [Example 91, N-[1-(5-chloro-3′-ethoxy-2-methoxy-6-methylbiphenyl-3-yl)ethyl]-9H-purin-6-amine] | 50 to 100 | > 1000
COc1c(C(C)Nc2ncnc3[nH]cnc23)cc(Cl)c(C)c1-c1ccc(Cl)c(F)c1 (stereo not drawn) [Example 92, N-{1-(4′,5-dichloro-3'-fluoro-2-methoxy-6-methylbiphenyl-3-yl)ethyl]-9H-purin-6-amine] | 100 to 250 | 100 to 500
COc1c(C(C)Nc2ncnc3[nH]cnc23)cc(Cl)c(C)c1-c1ccc(F)c(C(F)(F)F)c1 (stereo not drawn) [Example 93, N-{1-[5-chloro-4′-fluoro-2-methoxy-6-methyl-3′-(trifluoromethyl)biphenyl-3-yl]ethyl}-9H-purin-6-amine] | 50 to 100 | > 1000

Other lines, results leading:

IC50 (PI3Kδ (p110δ/p85α)) [nM] | IC50 [1] [nM] | Compound
< 50 | < 100 | COc1c(C(C)Nc2ncnc3[nH]cnc23)cc(Cl)c(C)c1-c1ccc(F)c(C(=O)N(C)C)c1 (stereo not drawn) [Example 94, 3′-chloro-4-fluoro-6′-methoxy-N,N,2′-trimethyl-5′-[1-(9H-purin-6-ylamino)ethyl]biphenyl-3-carboxamide]
< 50 | 500 to 1000 | COc1cc(-c2c(C)c(Cl)cc(C(C)Nc3ncnc4[nH]cnc34)c2OC)ccc1F (stereo not drawn) [Example 95, N-[1-(5-chloro-4′-fluoro-2,3′-dimethoxy-6-methylbiphenyl-3-yl)ethyl]-9H-purin-6-amine]
< 50 | < 100 | COc1ccc(-c2c(C)c(Cl)cc(C(C)Nc3ncnc4[nH]cnc34)c2OC)cc1OC (stereo not drawn) [Example 96, N-[1-(5-chloro-2,3′,4′-trimethoxy-6-methylbiphenyl-3-yl)ethyl]-9H-purin-6-amine]
50 to 100 | 100 to 500 | COc1ccc(-c2c(C)c(Cl)cc(C(C)Nc3ncnc4[nH]cnc34)c2OC)cc1Cl (stereo not drawn) [Example 97, N-[1-(3′,5-dichloro-2,4′-dimethoxy-6-methylbiphenyl-3-yl)ethyl]-9H-purin-6-amine]
< 50 | < 100 | COc1c(C(C)Nc2ncnc3[nH]cnc23)cc(Cl)c(C)c1-c1ccnc(Cl)c1 (stereo not drawn) [Example 98, N-{1-[5-chloro-3-(2-chloropyridin-4-yl)-2-methoxy-4-methylphenyl]ethyl}-9H-purin-6-amine]
< 50 | > 1000 | COc1c(C(C)Nc2ncnc3[nH]cnc23)cc(Cl)c(C)c1-c1cccc(N(C)C)c1 (stereo not drawn) [Example 100, N-{1-[5-chloro-3′-(dimethylamino)-2-methoxy-6-methylbiphenyl-3-yl]ethyl}-9H-purin-6-amine]
< 50 | < 100 | Cc1c(Cl)cc(C(C)Nc2ncnc3[nH]cnc23)c(-c2cc(F)cc(F)c2)c1-c1cn[nH]c1 (stereo not drawn) [Example 106, N-{1-[4-Chloro-3′,5′-difluoro-5-methyl-6-(1H-pyrazol-4-yl)biphenyl-2-yl]ethyl}-9H-purin-6-amine]
< 50 | 100 to 500 | Cc1n[nH]c(C)c1-c1c(C)c(Cl)cc(C(C)Nc2ncnc3[nH]cnc23)c1-c1cc(F)cc(F)c1 (stereo not drawn) [Example 107, N-{1-[4-chloro-6-(3,5-dimethyl-1H-pyrazol-4-yl)-3′,5′-difluoro-5-methylbiphenyl-2-yl]ethyl}-9H-purin-6-amine]
< 50 | < 100 | COc1ncc(-c2c(C)c(Cl)cc(C(C)Nc3ncnc4[nH]cnc34)c2OC)cc1F (stereo not drawn) [Example 109, N-{1-[5-chloro-3-(5-fluoro-6-methoxypyridin-3-yl)-2-methoxy-4-methylphenyl]ethyl]-9H-purin-6-amine]
< 50 | 100 to 500 | COc1c(C(C)Nc2ncnc3[nH]cnc23)cc(Cl)c(C)c1-c1cc(F)cc(C(N)=O)c1 (stereo not drawn) [Example 110, 3′-chloro-5-fluoro-6′-methoxy-2′-methyl-5′-[1-(9H-purin-6-ylamino)ethyl]biphenyl-3-carboxamide]
< 50 | < 100 | COc1c(C(C)Nc2ncnc3[nH]cnc23)cc(Cl)c(C)c1-c1cncc(C(=O)N2CCOCC2)c1 (stereo not drawn) [Example 111, N-(1-{5-chloro-2-methoxy-4-methyl-3-[5-(morpholin-4-ylcarbonyl)pyridin-3-yl]phenyl}ethyl)-9H-purin-6-amine]
< 50 | < 100 | COc1c(C(C)Nc2ncnc3[nH]cnc23)cc(Cl)c(C)c1-c1ccc(NC(C)=O)nc1 (stereo not drawn) [Example 112, N-(5-{3-chloro-6-methoxy-2-methyl-5-[1-(9H-purin-6-ylamino)ethyl]phenyl}-pyridin-2-yl)acetamide]
< 50 | < 100 | CC(Nc1ncnc2[nH]cnc12)c1cc(Cl)cc(-c2cn[nH]c2)c1-c1cc(F)cc(F)c1 (stereo not drawn) [Example 124, N-{1-[4-Chloro-3′,5′-difluoro-6-(1H-pyrazol-4-yl)biphenyl-2-yl]ethyl}-9H-purin-6-amine]
< 50 | < 100 | COc1c(C(C)Nc2ncnc3[nH]cnc23)cc(Cl)c(C)c1C1CN(C(C)=O)C1 (stereo not drawn) [Example 166, N-{1-[3-(1-Acetylazetidin-3-yl)-5-chloro-2-methoxy-4-methylphenyl]ethyl}-9H-purin-6-amine trifluoroacetate]
< 50 | < 100 | COc1c(C(C)Nc2ncnc3[nH]cnc23)cc(Cl)c(C)c1C1CN(C(C)C)C1 (stereo not drawn) [Example 170, N-{1-[5-Chloro-3-(1-isopropylazetidin-3-yl)-2-methoxy-4-methylphenyl]ethyl}-9H-purin-6-amine bis(trifluoroacetate)]
< 50 | < 100 | COc1c(C(C)Nc2ncnc3[nH]cnc23)cc(Cl)c(C)c1-c1cnn(C2CCNCC2)c1 (stereo not drawn) [Example 174, N-{1-[5-chloro-2-methoxy-4-methyl-3-(1-piperidin-4-yl-1H-pyrazol-4-yl)phenyl]ethyl}-9H-purin-6-amine tris(trifluoroacetate)]
< 50 | < 100 | COc1c(C(C)Nc2ncnc3[nH]cnc23)cc(Cl)c(C)c1C1CCN(C)CC1 (stereo not drawn) [Example 176, N-{1-[5-Chloro-2-methoxy-4-methyl-3-(1-methylpiperidin-4-yl)phenyl]ethyl}-9H-purin-6-amine]
